Test results as given in US20210324441A1, “CHARACTERIZATION OF MICROORGANISMS VIA MALDI-TOF” (BIOMÉRIEUX, priority 2014, published 2021).

Columns and labels:
E. coli = experiment: MIC of ampicillin for the bacterial strain; format: cell-based
[1] = Negative control without enzyme: ampicillin dried on MALDI plate, MALDI-TOF detection; format: physicochemical; details: water with 0.76 mM zinc, no enzyme, ambient temperature, one hour
Description: In the present experiment, an analysis zone of a MALDI plate (VITEK® MS disposable slides TO-430) was treated with a beta-lactam antibiotic and tested in order to evaluate the capacity of the antibiotics to be cleaved by a beta-lactamase. Ampicillin was used as the model for the antibiotic beta-lactam. The experiment was carried out by implementing the steps below: • 2 μL of a solution of ampicillin in a concentration of 10 mg/mL in water was deposited in the form of a drop onto an analysis zone of the MALDI plate. The plate was incubated at 37° C., until the drop had dried out completely. • 2 μL of a recombinant beta-lactamase (β-lactamase from Pseudomonas aeruginosa, Sigma-Aldrich batch L6170-550UN. CAS: 9073-60-3). • 2 μL of recombinant β-lactamase at a concentration of 1 mg/mL in water was used diluted in water supplemented with zinc in the form of zinc sulfate (0.76 millimoles (mM)) to promote enzymatic activity, was deposited onto the dry analysis zone carrying ampicillin. […]

K. pneumoniae = experiment: MIC of ampicillin for the bacterial strain; format: cell-based; details: strain 1, K. pneumoniae, resistant

MIC of ampicillin (minimum inhibiting concentration of the strain) (E. coli; strain 2, E. coli, resistant, penicillinase): >128
MIC of ampicillin (minimum inhibiting concentration of the strain) (E. coli; strain 3, E. coli, resistant, TEM β-lactamase): >128
MIC of ampicillin (minimum inhibiting concentration of the strain) (E. coli; strain 4, E. coli ATCC 25922, sensitive, no β-lactamase): 4
spontaneous hydrolysis on the plate [1]: A little spontaneous hydrolysis
MIC of ampicillin (minimum inhibiting concentration of the strain) (K. pneumoniae): 32
SMILES: CC1(C)S[C@@H]2[C@H](NC(=O)[C@H](N)c3ccccc3)C(=O)N2[C@H]1C(=O)O [ampicillin]
